Experimental data: patent US9371337B2, “β-lactamase inhibitors” (The Regents of the University of California, priority 2011, dated 2016)
Read-outs that look alike come from different tables or passages of the source.

Legend:
AmpC β-lactamase [1] = biological target: T1, AmpC β-lactamase (Escherichia coli, UniProt P00811); assay: biochemical; format: biochemical
T1 construct: made in house
Procedure: FIG. 18. Representative IC50 curves. […] IC50 curves were obtained by measuring rates (in duplicates) at different inhibitor concentrations (x-axis) and by determining the residual activity (y-axis, in percentage). IC50 values were determined by non-linear regression and Ki values calculated using GraphPad software assuming competitive inhibition.
Sulfonamidomethaneboronic acids were dissolved in 100% DMSO at a concentration of 100 mM; more diluted stocks were prepared as necessary. […] The enzyme was expressed and purified as described (Usher, K. C. et al., Biochemistry 1998, 37, 16082-16092) and CENTA was purchased from Tydock Pharma.
Kinetic measurements were run at room temperature in 50 mM sodium-cacodylate pH 6.5 in the presence of 0.01% Triton-X to prevent non-specific inhibition via compound aggregation. […] (Kettner, C. A. and Shenvi, A. B., J. Biol. Chem. 1984, 259, 15106-15114) Reactions were performed in 1 mL cuvettes with 60 μM CENTA and initiated by adding 1.2 nM enzyme. […] (Weston, G. S. et al., J. Med. Chem. 1998, 41, 4577-4586) The first 180 sec of each reaction were used to measure initial rates. IC50 values were obtained by fitting binding data to a sigmoidal dose-response equation using GraphPad Prism (GraphPad software, Inc). Ki values were determined by the use of Cheng-Prusoff equation. (Cheng, Y. and Prusoff, W. H., Biochem. Pharmacol. 1973, 22, 3099-3108)

Trypsin [2] = biological target: T2, Trypsin (UniProt P00760); assay: Trypsin inhibition; format: biochemical; details: Table 10, Trypsin
T2 construct: IC50 (Estimated from single concentration measurement); Ki
T2 sequence (P00760 1-246): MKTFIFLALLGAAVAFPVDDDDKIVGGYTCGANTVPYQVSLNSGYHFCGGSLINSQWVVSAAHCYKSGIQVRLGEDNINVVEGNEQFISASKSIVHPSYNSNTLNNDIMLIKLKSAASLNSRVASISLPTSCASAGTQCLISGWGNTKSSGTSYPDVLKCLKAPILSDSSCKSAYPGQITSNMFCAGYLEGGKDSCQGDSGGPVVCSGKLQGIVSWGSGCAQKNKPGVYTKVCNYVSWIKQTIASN
From the text: (§1) To assess the selectivity of the new molecules we determined Ki values against three common serine proteases, Trypsin, Elastase and α-Chymotrypsin, as well as that of a class A β-lactamase, CTX-M-9 (Table 10) (Pouvreau L, et al. (1998), FEBS Lett 423:167-172; Del Mar E G, et al. (1980), Biochemistry 19:468-472; Rodriguez-Martinez J A, et al. (2009), Biotechnol Lett 31:883-887; Chen Y, et al. (2005), J Mol Biol 348:349-362).

Elastase = Elastase inhibition; format: biochemical; details: Table 4h, Elastase vs AmpC
From the text: as §1

[3] = biological target: T3, α-chymotrypsin (bovine pancreatic) (Bos taurus, UniProt P00766); assay: α-Chymotrypsin inhibition; format: biochemical
T3 construct: purchased Sigma-Aldrich
Procedure: α-Chymotrypsin assays were performed in 50 mM Tris buffer pH 7.5 with 0.01% Triton-X. Inhibitor and 0.001 mg/mL enzyme were incubated at their final concentration for 10 min before the reaction was initiated by the addition of 200 μM N-succinyl-Ala-Ala-Pro-Phe p-nitroanilide and monitored at 410 nm.
as §1

CTX-M-9 β-lactamase = CTX-M-9 β-lactamase (Escherichia coli, UniProt Q9L5C8); assay: biochemical; format: biochemical
CTX-M-9 β-lactamase, sequence (Q9L5C8 29-291): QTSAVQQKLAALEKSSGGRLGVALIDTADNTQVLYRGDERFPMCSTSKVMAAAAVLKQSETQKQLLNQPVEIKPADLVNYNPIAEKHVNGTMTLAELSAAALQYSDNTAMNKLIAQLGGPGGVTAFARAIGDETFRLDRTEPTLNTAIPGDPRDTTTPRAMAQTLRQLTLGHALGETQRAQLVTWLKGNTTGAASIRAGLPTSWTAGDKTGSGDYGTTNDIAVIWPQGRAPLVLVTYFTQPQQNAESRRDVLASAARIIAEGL
Procedure: Reactions were initiated by the addition of 0.3 nM enzyme and monitored at 405 nm.
as §1

AmpC β-lactamase [4] = biological target: T1, AmpC β-lactamase; format: biochemical
Trypsin [5] = assay: Trypsin inhibition; format: biochemical; details: Table 4h, Trypsin vs AmpC
Trypsin [6] = biological target: T2, Trypsin; assay: Trypsin inhibition; format: biochemical
[7] = tested on: clinical strains resistant to third-generation cephalosporins; assay: MIC distribution of third-generation cephalosporins alone or with compounds over clinical strains; format: cell-based
Procedure: The anti-resistance activity of inhibitors was investigated by the determination of the minimum inhibitory concentrations (MICs) of the β-lactam/inhibitor combination necessary to inhibit the growth of clinically-isolated bacteria resistant to third-generation cephalosporins via expression of class A or class C β-lactamases (Table 6).
Susceptibility testing was performed and interpreted following the guidelines of CLSI. (Clinical and Laboratory Standards Institute, Performance standards for antimicrobial susceptibility testing, 20th Informational Supplement, M100-S20 2010) The compounds were dissolved in 50% DMSO, and dilutions were performed using Muller-Hinton medium. An adequate final concentration was obtained to determine the minimum inhibitory concentrations (MICs). The concentration of DMSO was maintained below 5%. The inhibitors were tested for synergy with the third-generation β-lactams ceftazidime and cefotaxime against several clinical bacteria. The ratio of β-lactams to inhibitors was 1:4. Each value reported reflects the average of three independent experiments. […] The Friedman's test and the Wilcoxon signed rank test were used to compare MIC values. Statistical significance was established at p<0.05.

[8] = third-generation cephalosporins in combination with the compound

T1 sequence (P00811 20-377): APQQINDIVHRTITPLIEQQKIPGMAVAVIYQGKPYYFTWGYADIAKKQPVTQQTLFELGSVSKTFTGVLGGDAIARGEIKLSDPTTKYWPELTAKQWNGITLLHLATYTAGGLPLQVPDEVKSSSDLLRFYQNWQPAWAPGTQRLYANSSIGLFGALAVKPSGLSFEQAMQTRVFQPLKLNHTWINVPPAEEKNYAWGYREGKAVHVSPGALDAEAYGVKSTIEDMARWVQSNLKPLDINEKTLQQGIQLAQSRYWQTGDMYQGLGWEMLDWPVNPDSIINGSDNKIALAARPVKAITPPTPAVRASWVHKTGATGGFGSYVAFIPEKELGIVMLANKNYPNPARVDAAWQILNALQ

Compound: CC(C)[C@H](NS(C)(=O)=O)B(O)O [CR175, (1R)-1-(Methylsulfonylamino)-2-methylpropaneboronic acid]
- Ki (AmpC β-lactamase [1]; Ki Vs AmpC, Table 7): 100 µM

Compound: N#Cc1ccc(S(=O)(=O)NCB(O)O)cc1 [CR162, [4-cyanobenzensulfonylamino]methaneboronic acid]
- Ki (AmpC β-lactamase [1]; Ki Vs AmpC, Table 7): 0.31 µM
- Ki (AmpC β-lactamase [1]; Ki vs AmpC, Table 8): 0.31 µM

Compound: Pinacol(3-cyanopropane-1-sulfonylamino)methaneboronate [CR135]
- Ki (AmpC β-lactamase [1]; Table 7, read-out: Ki Vs AmpC): 0.2 µM

Compound: CC(C)[C@H](NS(=O)(=O)Cc1ccccc1)B(O)O [CR173, (1R)-1-(Phenylmethanesulfonylamino)-2-methylpropaneboronic acid]
- Ki (AmpC β-lactamase [1]; Ki Vs AmpC, Table 7): 13 µM

Compound: CCOc1ccc2ccccc2c1S(=O)(=O)NCB(O)O [Compound 11, (2-Ethoxy-naphthalene-1-sulfonylamino)methaneboronic acid]
- Ki (AmpC β-lactamase [1]; read-out: Ki): 0.67 µM

Compound: Cc1ccc(S(=O)(=O)N(CB(O)O)C(C)(C)C)cc1 [CR17]
- Ki (AmpC β-lactamase [1]; Ki Vs AmpC, Table 7): 2.5 µM

Compound: O=S(=O)(NCB(O)O)c1ccc(-c2nn[nH]n2)nc1 [CR161, [6-(3-tetrazol-5-yl)pyridin-3-sulfonylamino]methaneboronic acid hydrocloride]
- Ki (Trypsin [2]): 350 µM
- Selectivity vs AmpC (comparison of IC50 values) (Elastase): 25799
- activity at 100 µM ([3]; Table 4b, 100 μM inhibitor, read-out: Percentage activity with 100 μM inhibitor): 90%
- potency estimated from few doses ([3]; Table 4e, read-out: IC50 (Estimated from single concentration measurement)): 900 µM
- Ki ([3]; Table 10, α-Chymotrypsin): 224 µM
- Selectivity vs AmpC (comparison of IC50 values) ([3]; Table 4h, Chymotrypsin vs AmpC): 136364
- inhibition at 100 µM ([3]; read-out: Percentage inhibition with 100 μM inhibitor): 10%
- IC50 (AmpC β-lactamase [1]): 0.0066 µM
- Ki (AmpC β-lactamase [1]; Ki): 0.0008 to 0.0013 µM
- Ki (AmpC β-lactamase [1]; Ki (from multi- or single concentration measurements), Table 4g): 0.0008 µM
- Ki (AmpC β-lactamase [1]; Ki Vs AmpC, Table 7): 0.0008 µM
- Ki (AmpC β-lactamase [1]; Ki vs AmpC, Table 8): 0.0008 µM
- Ki (AmpC β-lactamase [1]; Ki, Table 5): 0.0008 µM
- Ki (AmpC β-lactamase [1]; Ki, Table 10, AmpC): 0.0008 µM
- Ligand efficiency (AmpC β-lactamase [1]; Table 5): 0.64
- IC50 (CTX-M-9 β-lactamase): 6.7 µM
- Ki (CTX-M-9 β-lactamase; Table 8, read-out: Ki vs CTX-M-9): 3.9 µM
- Selectivity vs AmpC (comparison of IC50 values) (CTX-M-9 β-lactamase; Table 4h, CTX-M-9 vs AmpC): 1015
- potency estimated from few doses (CTX-M-9 β-lactamase; read-out: IC50 (Estimated from single concentration measurement)): 8 µM
- inhibition at 16 µM (CTX-M-9 β-lactamase; read-out: Percentage inhibition with 16 μM inhibitor): 66%
- type of inhibition (AmpC β-lactamase [4]; Lineweaver-Burk analysis, competition with substrate CENTA): competitive
- time dependence of inhibition (incubation effect, off-rate) (AmpC β-lactamase [4]; enzyme incubation and dilution experiments): incubation effect owing to slow off-rates
- Selectivity vs AmpC (comparison of IC50 values) (Trypsin [5]): 287879
- Percentage activity with 100 μM inhibitor (Trypsin [6]; Table 4b, 100 μM inhibitor): 95
- Percentage inhibition with 100 μM inhibitor (Trypsin [6]; Table 4c, 100 μM inhibitor): 5
- potency estimated from few doses (Trypsin [6]; read-out: IC50 (Estimated from single concentration measurement), Table 4e): 1900 µM
- clinical isolates for which MICs dropped into the susceptible range (MICs≦1 μg/mL) ([7]; cephalosporins combined with the compound): 75%
- MIC 25% percentile [7, 8]: 0.5 µg/mL
- MIC 75% percentile [7, 8]: 1.5 µg/mL

Compound: Cc1ccc(S(=O)(=O)N(C)CB(O)O)cc1 [CR14]
- Ki (AmpC β-lactamase [1]; Ki Vs AmpC, Table 7): 0.63 µM

Compound: N#Cc1ccc(S(=O)(=O)NCB(O)O)cn1 [CR163, [6-cyanopyridin-3-sulfonylamino]methaneboronic acid hydrocloride]
- Ki (AmpC β-lactamase [1]; Ki Vs AmpC, Table 7): 0.27 µM
- Ki (AmpC β-lactamase [1]; Ki vs AmpC, Table 8): 0.27 µM

Compound: O=C(Cc1cccs1)N[C@@H](Cc1cccc(C(=O)O)c1)B(O)O [Compound 17c, reference compound]
- Ki (AmpC β-lactamase [1]; Table 1, read-out: Ki): 0.039 µM

Compound: COC(=O)c1ccc(CS(=O)(=O)NCB(O)O)cc1 [Compound 8]
- Ki (AmpC β-lactamase [1]; Table 7, read-out: Ki Vs AmpC): 0.12 µM
